Literature values, collected in patent US20050186168A1, “Skin remodeling and regenerative compositions containing elastin peptide ligands having the amino acid sequence (XGXXPG)n” (priority 2004, published 2005).

Key:
[1] = system: Human lymphocytes; conditions: 1 microgram/ml
[2] = system: pro-MMP-3
[3] = system: pro-MMP-1; conditions: for concentration sufficient to stimulate pro-MMP-1 production: fibroblast culture, comparable stimulation levels
[4] = system: human skin fibroblasts
[5] = system: elastin-laminin receptor (ELR); conditions: 5 micrograms/ml (140 micromolar), 10th and 15th passage
[6] = system: MMP-1 mRNA; conditions: after 24 h of culture; standardized with 36B4 cDNA probe
[7] = 1 mM lactose in fibroblast culture medium

OC[C@H]1O[C@@H](O[C@H]2[C@H](O)[C@@H](O)C(O)O[C@@H]2CO)[C@H](O)[C@@H](O)[C@H]1O (stereo partly shown) [lactose]
elastin peptide-induced cell death [1]: inhibited
accumulation of pro-MMP-3 in the medium ([2]; cells treated with 1 mM lactose): decreased
inhibition of VGVAPG-stimulating effect on pro-MMP-1 production [3, 7]: 80%
inhibition of kE-stimulated pro-MMP-1 production [3, 7]: 35%
effect on pro-MMP-1 accumulation stimulated by interleukin-1 ([3]; lactose alone): no effect

OC[C@H]1O[C@H](OCC2O[C@@H](O)[C@H](O)[C@@H](O)[C@@H]2O)[C@H](O)[C@@H](O)[C@H]1O (stereo partly shown) [melibiose]
incorporation of the tracer in GAGs [4]: increased
post-synthetic degradation of hyaluronan [4]: inhibited
elastin peptide-induced cell death [1]: inhibited
fibronectin biosynthesis [5]: decreased
total protein biosynthesis [5]: decreased

GVAPGV
efficiency of pro-MMP-1 induction relative to VGVAPG (more efficient) ([3]; compared with VGVAPG): 20%

LGTIPG
stimulation of MMP-1 expression ([3]; laminin-derived peptide): Stimulation of MMP-1 expression could also be achieved

VGVAPG
MMP-1 mRNA levels increased [6]: 8 fold
expression of proteins reacting with anti-MMP-3 antibody (pro-MMP-3) ([2]; Western blotting, stimulated fibroblasts): significantly up-regulated
pro-MMP-1 induction level [3]: 1 ng/h/10^5 fibroblasts
concentration sufficient to stimulate pro-MMP-1 production [3]: 200 µg/mL

interleukin-1 receptor antagonist: interleukin-1 receptor antagonist
blocking of elastin peptide-dependent induction of pro-MMP-1 [3]: could not be blocked

B1: Elastin: extracellular matrix protein elastin (protein, UniProt P15502 27-786, looked up)
Elastin: GGVPGAIPGGVPGGVFYPGAGLGALGGGALGPGGKPLKPVPGGLAGAGLGAGLGAFPAVTFPGALVPGGVADAAAAYKAAKAGAGLGGVPGVGGLGVSAGAVVPQPGAGVKPGKVPGVGLPGVYPGGVLPGARFPGVGVLPGVPTGAGVKPKAPGVGGAFAGIPGVGPFGGPQPGVPLGYPIKAPKLPGGYGLPYTTGKLPYGYGPGGVAGAAGKAGYPTGTGVGPQAAAAAAAKAAAKFGAGAAGVLPGVGGAGVPGVPGAIPGIGGIAGVGTPAAAAAAAAAAKAAKYGAAAGLVPGGPGFGPGVVGVPGAGVPGVGVPGAGIPVVPGAGIPGAAVPGVVSPEAAAKAAAKAAKYGARPGVGVGGIPTYGVGAGGFPGFGVGVGGIPGVAGVPGVGGVPGVGGVPGVGISPEAQAAAAAKAAKYGAAGAGVLGGLVPGAPGAVPGVPGTGGVPGVGTPAAAAAKAAAKAAQFGLVPGVGVAPGVGVAPGVGVAPGVGLAPGVGVAPGVGVAPGVGVAPGIGPGGVAAAAKSAAKVAAKAQLRAAAGLGAGIPGLGVGVGVPGLGVGAGVPGLGVGAGVPGFGAGADEGVRRSLSPELREGDPSSSQHLPSTPSSPRVPGALAAAKAAKYGAAVPGVLGGLGALGGVGIPGGVVGAGPAAAAAAAKAAAKAAQFGLVGAAGLGGLGVGGLGVPGVGGLGGIPPAAAAKAAKYGAAGLGGVLGGAGQFPLGGVAARPGFGLSPIFPGGACLGKACGRKRK
concentration sufficient to stimulate pro-MMP-1 production [3]: 50 µg/mL

B2: tropoelastin: the soluble precursor of elastin (protein, UniProt P15502 27-786, looked up)
Elastin: B1 Elastin
concentration sufficient to stimulate pro-MMP-1 production [3]: 50 µg/mL
